# Entries after “also recorded” stand apart in the source; their conditions may differ.
# Legend:
# [1] = target: T1, alpha 1B subtype (Rattus norvegicus, UniProt P15823); experiment: [3H]prazosin binding assay in rat liver
# T1 construct: from tissue; host or cells: rat liver homogenate/membranes
# T1 sequence (P15823 1-515): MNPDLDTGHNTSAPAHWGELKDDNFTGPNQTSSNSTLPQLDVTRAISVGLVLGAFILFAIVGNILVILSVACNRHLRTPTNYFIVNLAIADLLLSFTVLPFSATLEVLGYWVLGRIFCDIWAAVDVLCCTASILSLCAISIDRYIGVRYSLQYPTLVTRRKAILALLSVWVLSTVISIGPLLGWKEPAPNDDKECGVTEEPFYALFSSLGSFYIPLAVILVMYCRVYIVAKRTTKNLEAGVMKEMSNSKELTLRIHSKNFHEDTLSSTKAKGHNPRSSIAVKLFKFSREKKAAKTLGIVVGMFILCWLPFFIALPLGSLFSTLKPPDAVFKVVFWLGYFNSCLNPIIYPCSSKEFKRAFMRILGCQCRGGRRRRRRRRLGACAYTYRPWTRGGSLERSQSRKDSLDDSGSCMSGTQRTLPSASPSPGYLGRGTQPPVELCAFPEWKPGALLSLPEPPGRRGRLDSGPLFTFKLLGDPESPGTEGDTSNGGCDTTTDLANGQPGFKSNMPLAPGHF
# [2] = target: T2, beta 2 adrenergic receptors (Cavia porcellus, UniProt Q8K4Z4); experiment: Salbutamol relaxation of cobaio trachea pre-contracted with carbacol; format: cell-based, guinea pig; conditions: salbutamol 10^−10-3.3×10^−5 M, strips pre-contracted with carbacol 10 microM, n=4
# T2 construct: from tissue; host or cells: guinea pig trachea strips pre-contracted with carbachol
# Excerpt: Selectivity Assay for Protein G-Coupled, Beta-Adrenergic, Muscarinic Cholinergic and Histaminergic Bioreceptors
# Determination of the Inhibitory Potency (IC50) of LASSBio 772 on Vasoconstriction of the Cobaio (Guinea Pig) Trachea
# Cobaios albinos from both sexes, weighing between 400 and 600 g were used in this experiment. The animals were sacrificed by cervical displacement and posterior bleed. Then, their tracheas were removed, kept in 5 microM indometacin added Krebs-Henseleit physiologic solution and oxygenated with carbogenic mixture (95% O2 and 5% CO2), proceeding the removal of the connective and adhered adipose tissue. From these tracheas were obtained segments with 4-6 rings, that are sectioned in the opposite side of the smooth musculature, originating strips used in the contractions assay (ARAKIDA et al., J. Pharmacol. Exper. Therap., 287: 633-639, 1998). […]
# After the period, the organ is treated with agonists that will induce contractions. […] The tissue viability was evaluated by contraction induction with histamine 100 microM or carbacol 10 microM. […]
# In another experiment the compound was evaluated for its capability to inhibit the relaxation produced by salbutamol (10^−10-3.3×10^−5 M), beta 2 adrenergic agonist, in strips of cobaio trachea pre-contracted with carbacol (10 microM).
# [3] = Arterial pressure effects in anesthetized rabbits; format: in vivo; conditions: rabbit
# Description: Animal and Homodynamic Measurements:
# The experiments were performed with male rabbits weighing 3 kg, from the CECAL (Centro de Criação de Animais de Laboratório) at Fundação Oswaldo Cruz. The animals were anesthetized with sodium pentobarbital (40 mg/kg) in the ear marginal vein, and anesthesia maintenance was obtained with supplemental intravenous (i.v.) doses of 5 mg/kg as necessary. The […] were tracheomized, inserted with a polyethylene canule, and immobilized with pancuronium bromide (1 mg/kg, i.v.), with supplemental doses of 0.2 mg/kg for each hour of experiment and artificially ventilated with a mechanical fan (Rodent ventilator 7025, Ugo Basile) with a volume of 10 ml/kg and frequency from 40 to 50 incursions/min. The right femoral vein was catheterized for drug administration.
# The arterial pressure was monitored through abdominal aorta catheter via the right femoral artery and connected to a quartz transductor Hewlett Packard (1290 A), which was connected to an arterial pressure processor and recorder Hewlett Packard (system 7754 with amplifier 8805 B).
# The systolic (SAP) and diastolic (DAP) arterial pressures were obtained directly from the records and the average arterial pressure (AAP) was calculated by DAP's Sum with a third of the differential pressure [[…]]. The cardiac frequency was determined by counting the pressure waves, visualized with the speed increase of the recorder paper.
# The cardiac debit (DC) was monitored using an electromagnetic probe, connected to a Skalar flowmeter model MDL 1401. After left thoraxatomy, between the second and third ribs, was made an incision in the pericardium and the heart was exposed to enable the visualization and dissection of the ascending aorta for installation of the electromagnetic probe. The systemic vascular resistance (SVR) was calculated as a quotient of the average arterial pressure by the cardiac debit, multiplied by a conversion factor 80 (SVR=AAP/DC×80) and expressed in dyn/seg/cm-5.
# At the conclusion of the anesthetic-surgical procedures, a 15-minute period was allowed for stabilization of the homodynamic parameters. Before any pharmacological manipulation the average arterial pressure, cardiac frequency and cardiac debit measurements were obtained. These values were considered basal homodynamic values.
# The results were expressed as average±standard deviation (E.P.M.) The administration effects of LASSBio 772 with regard to the basal values were analyzed through variance analysis (ANOVA) for repeated measurements. When a significant statistical difference was found in the test ANOVA, the test Newman-Keuls was used to locate the differences. The paired t test was used to analyze the phenylephrine pressure effects before and after the treatment with LASSBio 772B. Differences with p<0.05 were considered significant. All the calculations were done on the computer, using the statistic software Instat-2.0.
# Arterial Pressure Effects of LASSBio 772 Administration: […]
# T2 sequence (Q8K4Z4 whole entry): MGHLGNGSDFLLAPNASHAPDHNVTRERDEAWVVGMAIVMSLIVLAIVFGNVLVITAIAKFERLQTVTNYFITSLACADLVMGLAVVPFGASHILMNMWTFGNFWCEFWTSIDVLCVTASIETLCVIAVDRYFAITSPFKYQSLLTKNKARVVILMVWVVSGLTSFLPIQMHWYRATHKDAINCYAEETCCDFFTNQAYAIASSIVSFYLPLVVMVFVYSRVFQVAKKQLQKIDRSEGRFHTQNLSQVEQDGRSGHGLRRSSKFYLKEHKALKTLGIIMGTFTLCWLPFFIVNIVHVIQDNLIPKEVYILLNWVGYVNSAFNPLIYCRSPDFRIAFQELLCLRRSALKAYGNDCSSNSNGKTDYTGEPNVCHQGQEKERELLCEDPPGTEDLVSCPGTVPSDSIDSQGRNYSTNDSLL
compound,measurement,setting,value
"COc1ccccc1N1CCN(CCc2ccc3c(c2)OCO3)CC1 [LASSBio 772, 1-(2-1,3-Benzodioxol-5-yl-ethyl)-4-(2-methoxy-phenyl)-piperazine]",IC50,[1],450 nM
same,inhibition of the relaxation produced by salbutamol,[2],not able to inhibit significantly the relaxing effect of salbutamol; also recorded: did not present any activity
same,reduction of arterial pressure,[3]; 100 μg/kg i.v.,~10%
same,average arterial pressure (AAP),"[3]; 100 μg/kg i.v., n=5",79±4 mmHg
same,diastolic arterial pressure (DAP),"[3]; 100 μg/kg i.v., n=5",71±4 mmHg
same,systolic arterial pressure (SAP),"[3]; 100 μg/kg i.v., n=5",94±7 mmHg
same,hypotension,[3]; i.v.,without however causing significant clinically hypotension
same,dose from which a significant hypo-tensor response was induced,"[3]; i.v., doses 1-100 μg/kg, versus basal values",≥ 3 µg/kg
